Measured values published in EP0678295B1, “Manufacturing process of phospholipideactive principle complexes useful for the liposome preparation” (Citernesi, Ugo, priority 1994, dated 1995).

Test: Measurement of entrapment efficiency (ultracentrifugation of liposomes, HPLC determination of Vitamin A in both phases)
Assay type: physicochemical
Conditions: liposomes from gelified phospholipid /Vitamin A complex (Example 1A) plus physiologic solution, 325 nm
Description: Measurement of entrapment efficiency.
A gelified phospholipid /Vitamin A complex was prepared according to the procedure described in Example 1A.
Liposomes were then obtained by adding a physiologic solution to the complex and subsequent stirring of the mixture.
The obtained liposomes have been subjected to ultracentrifugation in order to separate the liposome phase from the water phase. In both phases Vitamin A was determined as follows.
Phospholipid /vitamin A pellet resulting from the ultracentrifugation was dissolved in hexane, filtered under vacuum (0.2 .10^5 Pa) and determined by HPLC (high performance liquid chromatography) using two different HPLC columns: • 1) Column: Chromsep Nucleosil C18 100 mm x 3 ID Eluent: methanol Flow: 1 ml/min. Detecting wl: 325 nm • 2) Column: Pertsil 10 ODS Eluent: Methanol/water (90/10) Flow: 1ml/min. Detecting wl: 325 nm
The water phase coming from the ultracentrifugation was analyzed for its vitamin A content using the same HPLC procedure and columns.

With `CC(=O)OC/C=C(C)/C=C/C=C(C)/C=C/C1=C(C)CCCC1(C)C` [Vitamin A, Vitamin A acetate] the “Vitamin A detected in the liposome phase” value (pellet after ultracentrifugation dissolved in hexane) was “almost all” and the “Vitamin A detected in the aqueous phase” value (water phase after ultracentrifugation) was “No Vitamin A was detected”.
